Reference: patent US11534457B2, “Use of dextran sulfate” (priority 2017, dated 2022)

What was measured:
[1] = tested on: LPS system [PBMC and HUVEC+LPS (TLR4 ligand)]; assay: BioMAP LPS system; format: cell-based, Human
From the text: In this study LMW-DS was characterized by profiling in the BioMAP® Diversity PLUS panel. The BioMAP® panel consists of human primary cell-based systems designed to model different aspects of the human body in an in vitro format. The 12 systems in the BioMAP® Diversity PLUS panel (Table 32) allow test agent characterization in an unbiased way across a broad set of systems modeling various human disease states. The BioMA®P systems are constructed with one or more primary cell types from healthy human donors, with stimuli, such as cytokines or growth factors, added to capture relevant signaling networks that naturally occur in human tissue or pathological conditions. […]
Systems are derived from either single cell types or co-culture systems. […] Test agents prepared in either DMSO (small molecules; final concentration 0.1%) or PBS (biologics) are added at the indicated concentrations 1-hr before stimulation, and remain in culture for 24-hrs or as otherwise indicated (48-hrs, MyoF system; 72-hrs, BT system (soluble readouts); 168-hrs, BT system (secreted IgG)). […] Soluble factors from supernatants are quantified using either HTRF® detection, bead-based multiplex immunoassay or capture ELISA. Overt adverse effects of test agents on cell proliferation and viability (cytotoxicity) are detected by sulforhodamine B (SRB) staining, for adherent cells, and alamarBlue® reduction for cells in suspension. […]

[2] = tested on: closed-head diffuse severe TBI (sTBI); assay: sTBI in rats, dose study, HPLC of free amino acids and amino group containing compounds (Example 7); format: in vivo, Male Wistar rats
[3] = 1 mg/kg s.c. single, 30 min post-sTBI, sacrifice 2 days
[4] = 5 mg/kg s.c. single, 30 min post-sTBI, sacrifice 2 days
[5] = 15 mg/kg s.c. single, 30 min post-sTBI, sacrifice 2 days
[6] = rats, 7 days post-sTBI, repeated administration of 15 mg/kg b.w.
[7] = rats, 7 days post-sTBI, single administration of 1 mg/kg b.w.
[8] = rats, 7 days post-sTBI, single administration of 5 mg/kg b.w.
[9] = rats, 7 days post-sTBI, single administration of 15 mg/kg b.w.

For “low molecular weight dextran sulfate [LMW-DS]”, the Decreased biomarker activity [1] was “sTNFα”, the Increased biomarker activity [1] was “IL-8” and the “GLN, brain concentration” value [2, 3] was 4.37 ± 0.59 nmol/g w.w. The “LYS, brain concentration” value [2, 3] was 0.29 ± 0.11 nmol/g w.w, the “ORN, brain concentration” value [2, 3] was 0.02 ± 0.01 nmol/g w.w and the “THR, brain concentration” value [2, 3] was 0.70 ± 0.15 nmol/g w.w. For the same substance, the “VAL, brain concentration” value [2, 3] was 0.07 ± 0.03 nmol/g w.w, the “ORN, brain concentration” value [2, 4] was 0.01 ± 0.01 nmol/g w.w and the “THR, brain concentration” value [2, 4] was 0.77 ± 0.17 nmol/g w.w. For the same substance, the “VAL, brain concentration” value [2, 4] was 0.08 ± 0.03 nmol/g w.w, the “GLN, brain concentration” value [2, 5] was 4.21 ± 0.51 nmol/g w.w and the “LEU, brain concentration” value [2, 5] was 0.04 ± 0.01 nmol/g w.w. The “ORN, brain concentration” value [2, 5] was 0.02 ± 0.01 nmol/g w.w, the “VAL, brain concentration” value [2, 5] was 0.06 ± 0.03 nmol/g w.w and the “isoleucine (ILE)” value ([2]; 2 days post sTBI) was “restored”. For the same substance, the “osmolyte and aromatic free amino acids” value ([2]; 2 days post sTBI) was “No remarkable effects”, the “free amino acids involved in NO generation (ARG, CITR)” value ([2]; 2 days post sTBI, 15 mg/kg b.w.) was “particularly effective” and the “free amino acids involved in neurotransmission” value ([2]; 2 days post sTBI, 5 or 15 mg/kg b.w.) was “partly effective”. For the same substance, the methionine ([2]; 2 days post sTBI, any dose tested) was “Restoration”, the TAU concentrations ([2]; 7 days post sTBI) was “normalized” and the aromatic amino acids ([2]; 7 days post sTBI) was “caused the increase”. The GLU ([2]; 7 days post sTBI, 15 mg/kg b.w. single or repeat) was “normalization”, the “free amino acids involved in NO generation (ARG, CITR)” value ([2]; 7 days post sTBI, 5 or 15 mg/kg b.w. (single and repeat)) was “particularly effective” and the “L-Cystathionine (L-Cystat)” value ([2]; 7 days post sTBI, highest dose) was “significant increase”. For the same substance, the MET ([2]; 7 days post sTBI, highest dose, single or repeat) was “Increase”, the “ALA concentration in deproteinized brain homogenates” value [2, 6] was 0.47 ± 0.05 nmol/g w.w and the “ASN concentration in deproteinized brain homogenates” value (from here on “ASN concentration”) [2, 6] was 0.10 ± 0.02 nmol/g w.w. The “CITR concentration in deproteinized brain homogenates” value (“CITR concentration” below) [2, 6] was 0.03 ± 0.01 nmol/g w.w, the GLN concentration in deproteinized brain homogenates [2, 6] was 3.88 ± 0.4 µmol/g w.w and the “HYS concentration in deproteinized brain homogenates” value (“HYS concentration” below) [2, 6] was 0.06 ± 0.01 nmol/g w.w. The “ILE concentration in deproteinized brain homogenates” value [2, 6] was 0.03 ± 0.01 nmoL/g w.w, the “LEU concentration in deproteinized brain homogenates” value [2, 6] was 0.04 ± 0.01 nmoL/g w.w and the “LYS concentration in deproteinized brain homogenates” value (shortened to “LYS concentration”) [2, 6] was 0.23 ± 0.07 nmoL/g w.w. For the same substance, the “MET concentration in deproteinized brain homogenates” value (“MET concentration” for short) [2, 6] was 0.05 ± 0.01 nmol/g w.w, the “THR concentration in deproteinized brain homogenates” value (“THR concentration” below) [2, 6] was 0.77 ± 0.14 nmol/g w.w and the “TYR concentration in deproteinized brain homogenates” value (shortened to “TYR concentration”) [2, 6] was 0.14 ± 0.02 nmol/g w.w. For the same substance, the “VAL concentration in deproteinized brain homogenates” value [2, 6] was 0.07 ± 0.01 nmoL/g w.w, the “ASN concentration” value [2, 7] was 0.10 ± 0.02 nmol/g w.w and the “CITR concentration” value [2, 7] was 0.03 ± 0.01 nmol/g w.w. The GLN concentration in deproteinized brain homogenates [2, 7] was 4.1 ± 0.42 µmol/g w.w, the “HYS concentration” value [2, 7] was 0.06 ± 0.01 nmol/g w.w and the “LYS concentration” value [2, 7] was 0.19 ± 0.06 nmoL/g w.w. The “MET concentration” value [2, 7] was 0.03 ± 0.01 nmol/g w.w, the “TAU concentration in deproteinized brain homogenates” value [2, 7] was 4.02 ± 0.51 nmol/g w.w and the “THR concentration” value [2, 7] was 0.71 ± 0.12 nmol/g w.w. The “TYR concentration” value [2, 7] was 0.13 ± 0.02 nmol/g w.w, the “ASN concentration” value [2, 8] was 0.10 ± 0.02 nmol/g w.w and the “CITR concentration” value [2, 8] was 0.03 ± 0.01 nmol/g w.w. For the same substance, the GLN concentration in deproteinized brain homogenates [2, 8] was 3.86 ± 0.4 µmol/g w.w, the “GLY concentration in deproteinized brain homogenates” value [2, 8] was 0.88 ± 0.15 nmol/g w.w and the “HYS concentration” value [2, 8] was 0.06 ± 0.01 nmol/g w.w. The “LYS concentration” value [2, 8] was 0.21 ± 0.04 nmoL/g w.w, the “MET concentration” value [2, 8] was 0.04 ± 0.01 nmol/g w.w and the “THR concentration” value [2, 8] was 0.71 ± 0.15 nmol/g w.w. For the same substance, the “TRP concentration in deproteinized brain homogenates” value [2, 8] was 0.02 ± 0.01 nmol/g w.w, the “TYR concentration” value [2, 8] was 0.13 ± 0.02 nmol/g w.w and the “ASN concentration” value [2, 9] was 0.10 ± 0.02 nmol/g w.w. For the same substance, the “CITR concentration” value [2, 9] was 0.03 ± 0.01 nmol/g w.w, the GLN concentration in deproteinized brain homogenates [2, 9] was 3.73 ± 0.38 µmol/g w.w and the “HYS concentration” value [2, 9] was 0.06 ± 0.01 nmol/g w.w. The “LYS concentration” value [2, 9] was 0.21 ±0.05 nmoL/g w.w, the “MET concentration” value [2, 9] was 0.04 ± 0.01 nmol/g w.w and the “THR concentration” value [2, 9] was 0.72 ± 0.14 nmol/g w.w. The “TYR concentration” value [2, 9] was 0.14 ± 0.02 nmol/g w.w.
